Data from patent US20260053932A1, “COMPOUNDS AND METHODS FOR THE TARGETED DEGRADATION OF ANDROGEN RECEPTOR AND ASSOCIATED METHODS OF USE” (Arvinas Operations, Inc., priority 2020, published 2026).

The compounds below were run on androgen receptor (AR) in LNCaP and/or VCaP cells (assay: Androgen Receptor ELISA assay (AR degradation)). Conditions: LNCaP and/or VCaP cells; 5 hours incubation; media with R1881; read-out: DC50 Code* (degradation of AR ELISA).
Type: cell-based
Outline: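 VCaP cells grown ≥3 days, then treated 5 h with compound in media containing 1 nM R1881 (10× stock). Cells lysed and AR quantified by sandwich ELISA (mouse AR detection Ab, HRP anti-mouse, TMB). DC50 and Dmax derived from AR degradation.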
Work on `COc1cc(O[C@H]2C[C@H](N(CC3CCN(c4cnc(C(=O)N[C@H]5CC[C@H](Oc6cc(C)c(C#N)c(C)c6)CC5)cn4)CC3)C(C)C)C2)cc2c1C(=O)N(C1CCC(=O)NC1=O)C2=O` (some centres unmarked) [Compound 17, N-((1r,4r)-4-(4-cyano-3,5-dimethylphenoxy)cyclohexyl)-5-(4-((((1r,3r)-3-((2-(2,6-dioxopiperidin-3-yl)-7-methoxy-1,3-dioxoisoindolin-5-yl)oxy)cyclobutyl) (isopropyl)amino)methyl)piperidin-1-yl)pyrazine-2-carboxamide] yielded a DC50 of under 1 nM.
`CC(C)N(CC1CCN(c2ncc(C(=O)N[C@H]3CC[C@H](Oc4ccc(C#N)c(Cl)c4)CC3)cn2)CC1)[C@H]1C[C@H](Oc2ccc3c(c2)C(=O)N(C2CCC(=O)NC2=O)C3)C1` (some centres unmarked) [Compound 60, N-((1r,4r)-4-(3-chloro-4-cyanophenoxy)cyclohexyl)-2-(4-((((1r,3r)-3-((2-(2,6-dioxopiperidin-3-yl)-3-oxoisoindolin-5-yl)oxy)cyclobutyl) (isopropyl)amino)methyl)piperidin-1-yl)pyrimidine-5-carboxamide] was tested, and the DC50 was under 1 nM.
`COc1cc(O[C@@H]2CC[C@@H](NC(=O)c3cnc(N4CCC(CN(C(C)C)[C@H]5C[C@H](Oc6ccc7c(c6)C(=O)N(C6CCC(=O)NC6=O)C7=O)C5)CC4)cn3)C2)ccc1C#N` (stereo partly drawn) [Compound 10, N-((1R,3R)-3-(4-cyano-3-methoxyphenoxy)cyclopentyl)-5-(4-((((1r,3R)-3-((2-(2,6-dioxopiperidin-3-yl)-1,3-dioxoisoindolin-5-yl)oxy)cyclobutyl) (isopropyl)amino)methyl)piperidin-1-yl)pyrazine-2-carboxamide] gave a DC50 of over 100 nM.
In the case of `CC1(C)[C@H](NC(=O)c2ccn([C@H]3CC[C@H](CCCOc4ccc5c(c4)C(=O)N(C4CCC(=O)NC4=O)C5=O)CC3)n2)C(C)(C)[C@H]1Oc1ccc(C#N)c(Cl)c1` (stereo partly drawn) [Compound 72, N-((1r,3R)-3-(3-chloro-4-cyanophenoxy)-2,2,4,4-tetramethylcyclobutyl)-1-((1r,4R)-4-(3-((2-(2,6-dioxopiperidin-3-yl)-1,3-dioxoisoindolin-5-yl)oxy)propyl)cyclohexyl)-1H-pyrazole-3-carboxamide], the DC50 is reported as over 100 nM.
With `CCN(CC1CCN(c2cnc(C(=O)N[C@H]3CC[C@H](Oc4ccc(C#N)c(Cl)c4)CC3)cn2)CC1)[C@H]1C[C@H](Oc2ccc3c(c2)C(=O)N(C2CCC(=O)NC2=O)C3=O)C1` (some centres unmarked) [Compound 28, N-((1r,4r)-4-(3-chloro-4-cyanophenoxy)cyclohexyl)-5-(4-((((1r,3r)-3-((2-(2,6-dioxopiperidin-3-yl)-1,3-dioxoisoindolin-5-yl)oxy)cyclobutyl)(ethyl)amino)methyl)piperidin-1-yl)pyrazine-2-carboxamide] the DC50 was under 1 nM.
`CCOc1cc(O[C@H]2CC[C@H](NC(=O)c3cnc(N4CC(CN(C(C)C)[C@H]5C[C@H](Oc6ccc7c(c6)C(=O)N(C6CCC(=O)NC6=O)C7=O)C5)C4)nc3)CC2)ccc1C#N` (some centres unmarked) [Compound 70, N-((1r,4r)-4-(4-cyano-3-ethoxyphenoxy)cyclohexyl)-2-(3-((((1r,3r)-3-((2-(2,6-dioxopiperidin-3-yl)-1,3-dioxoisoindolin-5-yl)oxy)cyclobutyl) (isopropyl)amino)methyl)azetidin-1-yl)pyrimidine-5-carboxamide] showed a DC50 of 1 to 10 nM.
With `CCN(CC1CCN(c2cnc(C(=O)N[C@H]3CC[C@H](Oc4ccc(C#N)c(OC)c4)CC3)cn2)CC1)[C@H]1C[C@H](Oc2ccc3c(c2)C(=O)N(C2CCC(=O)NC2=O)C3=O)C1` (some centres unmarked) [Compound 33, N-((1r,4r)-4-(4-cyano-3-methoxyphenoxy)cyclohexyl)-5-(4-((((1r,3r)-3-((2-(2,6-dioxopiperidin-3-yl)-1,3-dioxoisoindolin-5-yl)oxy)cyclobutyl)(ethyl)amino)methyl)piperidin-1-yl)pyrazine-2-carboxamide] the DC50 was under 1 nM.

Same assay, conditions: degradation of AR ELISA in LNCaP and/or VCaP cells; Table 2C; read-out: DC50 Code*
`CC1(C)[C@H](NC(=O)c2ccc(N3CCC(CN4CCN(c5ccc6c(c5)C(=O)N([C@]5(C#N)CCC(=O)NC5=O)C6)CC4)CC3)cc2)C(C)(C)[C@H]1Oc1ccc(C#N)c(Cl)c1` [compound 156, N-((1r,3r)-3-(3-chloro-4-cyanophenoxy)-2,2,4,4-tetramethylcyclobutyl)-4-(4-((4-(2-((S)-3-cyano-2,6-dioxopiperidin-3-yl)-3-oxoisoindolin-5-yl)piperazin-1-yl)methyl)piperidin-1-yl)benzamide] was tested, and the DC50 was over 100 nM.
Compound `[2H]C([2H])([2H])Oc1cc(O[C@H]2C(C)(C)[C@H](NC(=O)c3ccc(N4CCC(CN(C(C)C)[C@H]5C[C@H](Oc6cc(OC([2H])([2H])[2H])c7c(c6)C(=O)N(C6CCC(=O)NC6=O)C7=O)C5)CC4)cc3)C2(C)C)ccc1C#N` (mixture of isomers) [compound 149, rac-N-((1r,3r)-3-(4-cyano-3-(methoxy-d3)phenoxy)-2,2,4,4-tetramethylcyclobutyl)-4-(4-((((1r,3r)-3-((2-(2,6-dioxopiperidin-3-yl)-7-(methoxy-d3)-1,3-dioxoisoindolin-5-yl)oxy)cyclobutyl) (isopropyl)amino)methyl)piperidin-1-yl)benzamide] has a DC50 of under 1 nM.
With `COc1cc(O[C@H]2C[C@H](N(C)CC3CCN(c4cnc(C(=O)N[C@H]5C(C)(C)[C@H](Oc6cc(C)c(C#N)c(C)c6)C5(C)C)cn4)CC3)C2)cc2c1C(=O)N(C1CCC(=O)NC1=O)C2=O` (mixture of isomers) [compound 218, rac-N-((1r,3r)-3-(4-cyano-3,5-dimethylphenoxy)-2,2,4,4-tetramethylcyclobutyl)-5-(4-((((1r,3r)-3-((2-(2,6-dioxopiperidin-3-yl)-7-methoxy-1,3-dioxoisoindolin-5-yl)oxy)cyclobutyl) (methyl)amino)methyl)piperidin-1-yl)pyrazine-2-carboxamide] the DC50 was under 1 nM.
`COCCN(CC1CCN(c2ccc(C(=O)N[C@H]3C(C)(C)[C@H](Oc4cc(C)c(C#N)c(C)c4)C3(C)C)cc2)CC1)[C@H]1C[C@H](Oc2cc(OC)c3c(c2)C(=O)N(C2CCC(=O)NC2=O)C3=O)C1` (some centres unmarked) [compound 106, N-((1r,3r)-3-(4-cyano-3,5-dimethylphenoxy)-2,2,4,4-tetramethylcyclobutyl)-4-(4-((((1r,3r)-3-((2-(2,6-dioxopiperidin-3-yl)-7-methoxy-1,3-dioxoisoindolin-5-yl)oxy)cyclobutyl)(2-methoxyethyl)amino)methyl)piperidin-1-yl)benzamide] was tested, and the DC50 was under 1 nM.
`Cc1cc(O[C@H]2C(C)(C)[C@H](NC(=O)c3cnc(N4CC(CN[C@H]5C[C@H](Oc6ccc7c(c6)C(=O)N(C6CCC(=O)NC6=O)C7=O)C5)C4)nc3)C2(C)C)cc(C)c1C#N` (some centres unmarked) [compound 82, N-((1r,3r)-3-(4-cyano-3,5-dimethylphenoxy)-2,2,4,4-tetramethylcyclobutyl)-2-(3-((((1r,3r)-3-((2-(2,6-dioxopiperidin-3-yl)-1,3-dioxoisoindolin-5-yl)oxy)cyclobutyl)amino)methyl)azetidin-1-yl)pyrimidine-5-carboxamide] gave a DC50 of under 1 nM.
`Cc1cc(O[C@H]2C(C)(C)[C@H](NC(=O)c3cnc(N4CCC(CCN5CC(Oc6ccc7c(c6)C(=O)N(C6CCC(=O)NC6=O)C7=O)C5)CC4)nc3)C2(C)C)cc(C)c1C#N` (some centres unmarked) [compound 85, N-((1r,3r)-3-(4-cyano-3,5-dimethylphenoxy)-2,2,4,4-tetramethylcyclobutyl)-2-(4-(2-(3-((2-(2,6-dioxopiperidin-3-yl)-1,3-dioxoisoindolin-5-yl)oxy)azetidin-1-yl)ethyl)piperidin-1-yl)pyrimidine-5-carboxamide] was tested, and the DC50 was under 1 nM.
In the case of `CC1(C)[C@H](NC(=O)c2ccc(N3CCC(CN(CCN4CCOCC4)[C@H]4C[C@H](Oc5ccc6c(c5)C(=O)N(C5CCC(=O)NC5=O)C6=O)C4)CC3)cc2)C(C)(C)[C@H]1Oc1ccc(C#N)c(C#N)c1` (some centres unmarked) [compound 214, N-((1r,3r)-3-(3,4-dicyanophenoxy)-2,2,4,4-tetramethylcyclobutyl)-4-(4-((((1r,3r)-3-((2-(2,6-dioxopiperidin-3-yl)-1,3-dioxoisoindolin-5-yl)oxy)cyclobutyl)(2-morpholinoethyl)amino)methyl)piperidin-1-yl)benzamide], the DC50 is reported as under 1 nM.
`Cc1cc(O[C@H]2C(C)(C)[C@H](NC(=O)c3cnc(N4CCC(CN(C(C)C)[C@H]5C[C@H](Oc6ccc7c(c6)C(=O)N(C6CCC(=O)NC6=O)C7=O)C5)CC4)nc3C)C2(C)C)cc(C)c1C#N` (mixture of isomers) [compound 146, rac-N-((1r,3r)-3-(4-cyano-3,5-dimethylphenoxy)-2,2,4,4-tetramethylcyclobutyl)-2-(4-((((1r,3r)-3-((2-(2,6-dioxopiperidin-3-yl)-1,3-dioxoisoindolin-5-yl)oxy)cyclobutyl) (isopropyl)amino)methyl)piperidin-1-yl)-4-methylpyrimidine-5-carboxamide] gave a DC50 of under 1 nM.
With `COc1cc(O[C@H]2C(C)(C)[C@H](NC(=O)c3ccc(N4CCC(CN(CC(F)F)[C@H]5C[C@H](Oc6cc(OC)c7c(c6)C(=O)N(C6CCC(=O)NC6=O)C7=O)C5)CC4)cc3)C2(C)C)ccc1C#N` (some centres unmarked) [compound 235, N-((1r,3r)-3-(4-cyano-3-methoxyphenoxy)-2,2,4,4-tetramethylcyclobutyl)-4-(4-(((2,2-difluoroethyl)((1r,3r)-3-((2-(2,6-dioxopiperidin-3-yl)-7-methoxy-1,3-dioxoisoindolin-5-yl)oxy)cyclobutyl)amino)methyl)piperidin-1-yl)benzamide] the DC50 was under 1 nM.

Same assay, conditions: degradation of AR ELISA in LNCaP and/or VCaP cells; read-out: DC50 Code*
`Cc1cc(O[C@H]2C(C)(C)[C@H](NC(=O)c3cnc(N4CCC(CN(C(C)C)[C@H]5C[C@H](Oc6ccc7c(c6)C(=O)N(C6CCC(=O)N(COP(=O)(O)OCOC(=O)OC(C)C)C6=O)C7=O)C5)CC4)cn3)C2(C)C)cc(C)c1C#N` (mixture of isomers) [compound 247, rac-((((3-(5-((1r,3r)-3-(((1-(5-(((1r,3r)-3-(4-cyano-3,5-dimethylphenoxy)-2,2,4,4-tetramethylcyclobutyl)carbamoyl)pyrazin-2-yl)piperidin-4-yl)methyl)(isopropyl)amino)cyclobutoxy)-1,3-dioxoisoindolin-2-yl)-2,6-dioxopiperidin-1-yl)methoxy)(hydroxy)phosphoryl)oxy)methyl isopropyl carbonate] was tested, and the DC50 was over 100 nM.
